Data published in US12202785B2 (Texas Tech University System, priority 2018, dated 2025).
“Also recorded” adds a separate entry of the source.

Legend:
[1] = cited from earlier work
[2] = system: Drinking In the Dark (DID) murine model of binge drinking; assay: Drinking In the Dark (DID) murine model of binge drinking; type: in vivo, mice; conditions: for binge ethanol consumption: figure legends FIG. 8C to 15C, dose not given
Protocol: Using a standard Drinking In the Dark (DID) murine model of binge drinking, we tested the effect of 0, 25, 35, 50 and 100 mg/kg per os (p.o.) acetylated minocycline (derivative Y, or CMM1) vs control.

[3] = system: AUD traits; conditions: seven tetracyclines tested; earlier published work of the inventors; cited from earlier work
[4] = system: E. coli; assay: E. coli zone of inhibition (ZOI) and recovered colony forming units (CFU) per disk; type: cell-based; conditions: dose response
Protocol: Minocycline and two acetylated derivatives, CMM1 (B) and CMM2 (Y), were tested in a dose response manner for A) zone of inhibition (ZOI) and B) recovered colony forming units (CFU) per disk.

[5] = system: DBA/2J mice, alcohol withdrawal symptoms; assay: Alcohol withdrawal, Handling Induced Convulsion scores; type: in vivo
Protocol: Female and male DBA/2J mice were tested with CMM1, 100 mg/kg p.o., at 2 hrs following 4 g/kg 20% ethanol in saline. Shown are the Handling Induced Convulsion scores, background subtracted and summed over 24 hours. […] Mean±SEM, n=5/group.

[6] = system: Large White x Landrace hybrid swine; assay: Two-bucket choice water vs 5% ethanol in swine; conditions: 10 mg/kg p.o., n=3/group
[7] = system: DID consumption; assay: DID ethanol consumption after intracerebroventricular (ICV) dosing; type: in vivo; conditions: 3 ul of 9 mg/ml icv 20 hrs prior to DID testing; n=9-11; p<0.01
Protocol: To test the hypothesis that tigecycline works at the level of the CNS, rather than the PNS, 3 ul of drug (9 mg/ml) was given icy 20 hrs prior to DID testing. n=9-11, mean±SEM, **p<0.01.

[8] = system: DID ethanol consumption; assay: Drinking In the Dark (DID) ethanol consumption after ten-day GI microbiome sterilization; type: in vivo; conditions: 100 mg/kg i.p.; ampicillin, neomycin, metronidazole, vancomycin pre-treatment vs none; n=7
Protocol: A ten-day “sterilization” treatment with ampicillin, neomycin, metronidozale and vancomycin was used. Bedding was changed daily to avoid repopulation. DID was started on day 11 after one day of no metronidazole. Tigecycline was given at 100 mg/kg intraperitoneal (i.p.) n=7, mean±SEM.

Compound: CN(C)[C@@H]1C(O)=C(C(N)=O)C(=O)[C@@]2(O)C(O)=C3C(=O)c4c(O)ccc(Cl)c4[C@@H](O)[C@H]3C[C@@H]12 [Demeclocycline]
- LogD [1]: −3.40
- LogP [1]: −1.07

Compound: CCCOc1ccc(N(C)C)c2c1C(=O)C1=C(O)C3(O)C(=O)C(C(N)=O)=C(O)C(N(C)C)C3CC1C2 (stereo not shown) [Propyl Ether Minocycline, 4,7-Bis-dimethylamino-3,12,12a-trihydroxy-1,11-dioxo-10-propoxy-1,4,4a,5,5a,6,11,12a-octahydro-naphthacene-2-carboxylic acid amide]
- binge ethanol consumption [2]: reduction of binge ethanol consumption

Compound: CN(C)c1ccc(O)c2c1CC1CC3C(N(C)C)C(O)=C(C(N)=O)C(=O)C3(O)C(O)=C1C2=O (stereo not shown) [Minocycline, 4,7-Bis-dimethylamino-3,10,12,12a-tetrahydroxy-1,11-dioxo-1,4,4a,5,5a,6,11,12a-octahydro-naphthacene-2-carboxylic acid amide]
- efficacy against AUD traits [3]: efficacious; also recorded: effective
- antibiotic activity (ZOI and recovered CFU per disk) [4]: eliminated E. coli

Compound: CC(=O)NC(=O)c1c(OC(C)=O)c2c(c(N(C)C)c1OC(C)=O)CC1Cc3c(N(C)C)ccc(OC(C)=O)c3C(=O)C1=C2O (stereo not shown) [CMM2, Acetic acid 3,10-diacetoxy-2-acetylcarbamoyl-4,7-bis-dimethylamino-12-hydroxy-11-oxo-5,5a,6,11-tetrahydro-naphthacen-1-yl ester]
- antibiotic activity (ZOI and recovered CFU per disk) [4]: loss of antibiotic activity even at high doses

Compound: CC(=O)NC(=O)c1c(OC(C)=O)c2c(c(N(C)C)c1OC(C)=O)CC1Cc3c(N(C)C)ccc(OC(C)=O)c3C(=O)C1=C2O (stereo not shown) [Tetra Acetyl Minocycline, Acetic acid 3,10-diacetoxy-2-acetylcarbamoyl-4,7-bis-dimethylamino-12-hydroxy-11-oxo-5,5a,6,11-tetrahydro-naphthacen-1-yl ester]
- binge ethanol consumption [2]: reduction of binge ethanol consumption

Compound: CN(C)[C@@H]1C(=O)C(C(N)=O)=C(O)[C@@]2(O)C(=O)C3=C(O)c4c(O)cccc4[C@@](C)(O)[C@H]3[C@H](O)[C@@H]12 [Oxytetracycline]
- LogD [1]: −4.25
- LogP [1]: −1.5

Compound: CC(=O)NC(=O)c1c(OC(C)=O)c2c(c(N(C)C)c1OC(C)=O)CC1Cc3c(N(C)C)ccc(OC(C)=O)c3C(=O)C1=C2OC(C)=O (stereo not shown) [CMM1, Acetic acid 3,10,12-triacetoxy-2-acetylcarbamoyl-4,7-bis-dimethylamino-11-oxo-5,5a,6,11-tetrahydro-naphthacen-1-yl ester]
- efficacy on withdrawal compared with parent drug minocycline ([5]; 100 mg/kg p.o.): more effective than the parent drug
- efficacy on withdrawal, females vs males ([5]; 100 mg/kg p.o.): more effective in females
- alcohol withdrawal symptoms (Handling Induced Convulsion scores, background subtracted, summed over 24 hours) ([5]; 100 mg/kg p.o. at 2 hrs following 4 g/kg 20% ethanol, female and male, n=5/group): reduced alcohol withdrawal symptoms
- onset, peak and duration of withdrawal symptoms ([5]; 100 mg/kg p.o., n=5/group): reduced onset, peak and duration of withdrawal symptoms
- alcohol preference [6]: reduced
- total ethanol consumption [6]: reduced
- antibiotic activity (ZOI and recovered CFU per disk) [4]: loss of antibiotic activity even at high doses
- dose dependence of reduction of alcohol consumption ([2]; 0, 25, 35, 50 and 100 mg/kg p.o.): dose-dependent response
- ethanol consumption (drinking) ([2]; 0, 25, 35, 50 and 100 mg/kg p.o. vs control, n=4/group, p=0.004): significantly reduced drinking
- water consumption ([2]; FIGS. 5A to 5D): not water consumption

Compound: CC(=O)NC(=O)c1c(O)cc2c(c1O)C(O)=C1C(=O)c3c(OC(C)=O)ccc(N(C)C)c3CC1C2 (stereo not shown) [De Methyl Diacetate Minocycline, Acetic acid 9-acetylcarbamoyl-4-dimethylamino-8,10,11-trihydroxy-12-oxo-5,5a,6,12-tetrahydro-naphthacen-1-yl ester]
- binge ethanol consumption [2]: reduction of binge ethanol consumption

Compound: COc1ccc(N(C)C)c2c1C(=O)C1=C(O)C3(O)C(=O)C(C(N)=O)=C(O)C(N(C)C)C3CC1C2 (stereo not shown) [Methyl Ether Minocycline, 4,7-Bis-dimethylamino-3,12,12a-trihydroxy-10-methoxy-1,11-dioxo-1,4,4a,5,5a,6,11,12a-octahydro-naphthacene-2-carboxylic acid amide]
- binge ethanol consumption [2]: reduction of binge ethanol consumption

Compound: CC(=O)NC(=O)c1c(OC(C)=O)c2c(c(N(C)C)c1OC(C)=O)CC1Cc3c(N(C)C)ccc(OC(C)=O)c3C(=O)C1=C2OC(C)=O (stereo not shown) [Penta Acetyl Minocycline, Acetic acid 3,10,12-triacetoxy-2-acetylcarbamoyl-4,7-bis-dimethylamino-11-oxo-5,5a,6,11-tetrahydro-naphthacen-1-yl ester]
- binge ethanol consumption [2]: reduction of binge ethanol consumption

Compound: C[C@H]1c2cccc(O)c2C(=O)C2=C(O)[C@]3(O)C(=O)C(C(N)=O)=C(O)[C@@H](N(C)C)[C@@H]3[C@@H](O)[C@@H]21 [Doxycycline]
- efficacy against AUD traits [3]: efficacious; also recorded: effective
- LogD [1]: −3.29
- LogP [1]: −0.54

Compound: COc1ccc(N(C)C)c2c1C(=O)C1=C(O)c3c(O)c(C(=O)NC(C)=O)c(O)c(N(C)C)c3CC1C2 (stereo not shown) [Methyl Ether N-Monoacetate Minocycline, 4,7-Bis-dimethylamino-1,3,12-trihydroxy-10-methoxy-11-oxo-5,5a,6,11-tetrahydro-naphthacene-2-carboxylic acid acetyl-amide]
- binge ethanol consumption [2]: reduction of binge ethanol consumption

Compound: CCOc1ccc(N(C)C)c2c1C(=O)C1=C(O)C3(O)C(=O)C(C(N)=O)=C(O)C(N(C)C)C3CC1C2 (stereo not shown) [Ethyl Ether Minocycline, 4,7-Bis-dimethylamino-10-ethoxy-3,12,12a-trihydroxy-1,11-dioxo-1,4,4a,5,5a,6,11,12a-octahydro-naphthacene-2-carboxylic acid amide]
- binge ethanol consumption [2]: reduction of binge ethanol consumption

Compound: CCCCOc1ccc(N(C)C)c2c1C(=O)C1=C(O)C3(O)C(=O)C(C(N)=O)=C(O)C(N(C)C)C3CC1C2 (stereo not shown) [Butyl Ether Minocycline, 10-Butoxy-4,7-bis-dimethylamino-3,12,12a-trihydroxy-1,11-dioxo-1,4,4a,5,5a,6,11,12a-octahydro-naphthacene-2-carboxylic acid amide]
- binge ethanol consumption [2]: reduction of binge ethanol consumption

Compound: COc1ccc(N(C)C)c2c1C(=O)C1=C(O)c3c(c(N(C)C)c(OC(C)=O)c(C(=O)NC(C)=O)c3OC(C)=O)CC1C2 (stereo not shown) [Methyl Ether Tri Acetate Minocycline, Acetic acid 4-acetoxy-3-acetylcarbamoyl-1,10-bis-dimethylamino-5-hydroxy-7-methoxy-6-oxo-6,11,11a,12-tetrahydro-naphthacen-2-yl ester]
- binge ethanol consumption [2]: reduction of binge ethanol consumption

Compound: CN(C)c1cc(NC(=O)CNC(C)(C)C)c(O)c2c1C[C@H]1C[C@H]3[C@H](N(C)C)C(O)=C(C(N)=O)C(=O)[C@@]3(O)C(O)=C1C2=O [Tigecycline]
- DID ethanol consumption [7]: reduced DID consumption
- efficacy against AUD traits [3]: efficacious; also recorded: effective
- LogD [1]: −2.73
- LogP [1]: −1.30
- DID ethanol consumption / efficacy of tigecycline after gut sterilization [8]: No significant difference
